In patent US9695178B2, “6-(2-pyridyl)-7,8-dihydro-5H-pyrido[4,3-D]pyrimidine analogs as hedgehog pathway signaling inhibitors and therapeutic applications thereof” (Suzhou Yunxuan Yiyao Keji Youxian Gongsi, priority 2013, dated 2017) one finds IC50 data, which are given here for 32 compounds.

Where only a bound is given, the exact number is not on record here.

This assay deals with Smo (Homo sapiens, UniProt Q99835). Description: Bodipy-Cyclopamine Binding Assay (confirmation assay), Hek293-SMO cells.
Sequence of Smo (Q99835 28-787): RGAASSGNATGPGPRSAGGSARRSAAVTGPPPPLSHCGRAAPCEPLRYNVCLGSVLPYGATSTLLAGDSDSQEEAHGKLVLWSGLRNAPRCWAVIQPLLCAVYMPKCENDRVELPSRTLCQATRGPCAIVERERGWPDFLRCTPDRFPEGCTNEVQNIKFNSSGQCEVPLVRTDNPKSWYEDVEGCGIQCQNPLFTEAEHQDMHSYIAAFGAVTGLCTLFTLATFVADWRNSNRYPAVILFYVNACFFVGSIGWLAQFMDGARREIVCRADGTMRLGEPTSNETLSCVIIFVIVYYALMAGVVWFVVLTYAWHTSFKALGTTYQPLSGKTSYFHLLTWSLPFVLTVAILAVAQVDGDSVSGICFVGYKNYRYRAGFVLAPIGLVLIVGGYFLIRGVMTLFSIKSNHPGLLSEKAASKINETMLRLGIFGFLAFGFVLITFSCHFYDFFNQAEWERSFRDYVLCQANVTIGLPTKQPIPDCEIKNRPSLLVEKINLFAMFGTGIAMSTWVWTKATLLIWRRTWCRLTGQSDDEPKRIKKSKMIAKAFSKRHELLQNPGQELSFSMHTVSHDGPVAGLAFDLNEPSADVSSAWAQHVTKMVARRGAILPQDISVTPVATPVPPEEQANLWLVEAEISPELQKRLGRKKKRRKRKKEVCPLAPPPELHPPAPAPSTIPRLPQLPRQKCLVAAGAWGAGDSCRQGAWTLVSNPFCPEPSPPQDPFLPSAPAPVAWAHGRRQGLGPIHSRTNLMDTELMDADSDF
Procedure: The confirmation assay is based on Bodipy-Cyclopamine Binding Assay:
Bodipy-Cyclopamine binding assay is a fluorescence based assay used to analysis the binding of Smo agonists. […] Bodipy-Cyclopamine was purchased from Toronto Research Chemicals and dissolved in methanol.
Hek293-SMO cells were plated in 96-well-plate (3340, Corning), the final cell concentration is 15,000 cells/well in 100 ul 1% serum-containing DMEM. The plates were incubated in 37 degree for additional 48 hours.
Hek293-SMO plate were washed with PBS and fixed with 4% paraformaldehyde (PFA)/PBS for 20 min at room temperature. After removing the PFA buffer, the cells were incubated with DAPI/PBS (5 ug/mL) for 10 min and followed by twice wash with PBS. After wash, cells were incubated for 2 h at room temperature in binding buffer (HBSS W/O Ca^2+ and Mg^2+) containing 100 nM bodipy-cyclopamine and compounds over a range of concentrations from 0-10 μM for competitive binding. After incubation, the cells were washed twice with the PBS. The fluorescence images were automatically captured and analyzed by a high content fluorescence imaging system (Arrayscan VTI, Thermo). GDC-0449 was used as reference compound to normalize the data. IC50 values were calculated with GraphPad Prism software using the sigmoidal dose-response function. The Ki was calculated following the Cheng-Prusoff equation, as Ki=IC50/[1+[bodipy-cyclopamine]/Kd)].
As a reminder, the IC50 is the concentration at which inhibition is half-maximal. Low values mean inhibition by little substance, high ones a need for much substance. Consider `Cc1cnc(-c2cc(N3CCc4nc(NCC5CC5)sc4C3)ncc2Cl)c(C)c1` [Compound A-31, 5-(5′-chloro-3,5-dimethyl-2,4′-bipyridin-2′-yl)-N-(cyclopro-pylmeth-yl)-4,5,6,7-tetrahydro-thiazolo-[5,4-c]pyridin-2-amine], for which the IC50 is 54.8 nM.
As for `Cc1cnc(-c2cc(N3CCc4nc(N5CCC(O)CC5)sc4C3)ncc2Cl)c(C)c1` [Compound A-32, 1-(5-(5′-chloro-3,5-dimethyl-2,4′-bipyridin-2′-yl)-4,5,6,7-tetrahydro-thiazolo-[5,4-c]pyridin-2-yl)piperidin-4-ol], the half-maximal inhibitory concentration (IC50) came to 86.7 nM.
Under `Cc1cnc(-c2cc(N3CCc4nc(N5CC(C)OC(C)C5)sc4C3)ncc2Cl)c(C)c1` (centres unmarked) [Compound A-33, 4-(5-(5′-chloro-3,5-dimethyl-2,4′-bipyridin-2′-yl)-4,5,6,7-tetrahydro-thiazolo-[5,4-c]pyridin-2-yl)-2,6-dimethyl-morpholine] stands 447 nM; under `Cc1cnc(-c2cc(N3CCc4nc(N5CCCC5)sc4C3)ncc2Cl)c(C)c1` [Compound A-34, 5-(5′-chloro-3,5-dimethyl-2,4′-bipyridin-2′-yl)-2-(pyrrolidin-1-yl)-4,5,6,7-tetrahydro-thiazolo-[5,4-c]pyridine], 371 nM.
The value for `CCNc1nc2c(s1)CN(c1cc(-c3ncc(C)cc3C)c(Cl)cn1)CC2` [Compound A-35, 5-(5′-chloro-3,5-dimethyl-2,4′-bipyridin-2′-yl)-N-ethyl-4,5,6,7-tetrahydro-thiazolo-[5,4-c]pyridin-2-amine] was 260 nM; that for `Cc1cnc(-c2cc(N3CCc4nc(-n5cccn5)sc4C3)ncc2Cl)c(C)c1` [Compound A-36, 5-(5′-chloro-3,5-dimethyl-2,4′-bipyridin-2′-yl)-2-(1H-pyrazol-1-yl)-4,5,6,7-tetrahydro-thiazolo-[5,4-c]pyridine] was 565 nM.
The value for `CCOC(=O)Nc1nc2c(s1)CN(c1cc(-c3ncc(C)cc3C)c(Cl)cn1)CC2` [Compound A-37, ethyl 5-(5′-chloro-3,5-dimethyl-2,4′-bipyridin-2′-yl)-4,5,6,7-tetrahydro-thiazolo-[5,4-c]pyridin-2-ylcarbamate] was 487 nM; that for `Cc1cnc(-c2cc(N3CCc4nc(NC(=O)C(F)(F)F)sc4C3)ncc2Cl)c(C)c1` [Compound A-38, N-(5-(5′-chloro-3,5-dimethyl-2,4′-bipyridin-2′-yl)-4,5,6,7-tetrahydro-thiazolo-[5,4-c]pyridin-2-yl)-2,2,2-trifluoro-acetamide] was greater than 1000 nM.
With `Cc1cnc(-c2cc(N3CCc4nc(NC(=O)CCN5CCOCC5)sc4C3)ncc2Cl)c(C)c1` [Compound A-39, N-(5-(5′-chloro-3,5-dimethyl-2,4′-bipyridin-2′-yl)-4,5,6,7-tetrahydro-thiazolo-[5,4-c]pyridin-2-yl)-3-morpholino-propan-amide], the IC50 worked out at 134 nM.
Consider `Cc1cnc(-c2cc(N3CCc4nc(NC(=O)CCN5CCCCC5)sc4C3)ncc2Cl)c(C)c1` [Compound A-40, N-(5-(5′-chloro-3,5-dimethyl-2,4′-bipyridin-2′-yl)-4,5,6,7-tetrahydro-thiazolo-[5,4-c]pyridin-2-yl)-3-(piperidin-1-yl)propanamide], for which the IC50 amounted to 151 nM.
Regarding `Cc1cnc(-c2cc(N3CCc4nc(NC(=O)CCN(C)C)sc4C3)ncc2Cl)c(C)c1` [Compound A-41, N-(5-(5′-chloro-3,5-dimethyl-2,4′-bipyridin-2′-yl)-4,5,6,7-tetrahydro-thiazolo-[5,4-c]pyridin-2-yl)-3-(dimethyl-amino)-propanamide], the IC50 was found to be 173 nM.
With `CCNC(=O)Nc1nc2c(s1)CN(c1cc(-c3ncc(C)cc3C)c(Cl)cn1)CC2` [Compound A-42, 1-(5-(5′-chloro-3,5-dimethyl-2,4′-bipyridin-2′-yl)-4,5,6,7-tetrahydro-thiazolo-[5,4-c]pyridin-2-yl)-3-ethylurea], the IC50 came out at 190 nM.
`Cc1cnc(-c2cc(N3CCc4nc(NC(=O)NC(C)C)sc4C3)ncc2Cl)c(C)c1` [Compound A-43, 1-(5-(5′-chloro-3,5-dimethyl-2,4′-bipyridin-2′-yl)-4,5,6,7-tetrahydro-thiazolo-[5,4-c]pyridin-2-yl)-3-isopropylurea] showed an IC50 of 201 nM. This IC50 and that of the compound before are within 1.5-fold of each other.
The compound `C=CC(=O)Nc1nc2c(s1)CN(c1cc(-c3ncc(C)cc3C)c(Cl)cn1)CC2` [Compound A-44, N-(5-(5′-chloro-3,5-dimethyl-2,4′-bipyridin-2′-yl)-4,5,6,7-tetrahydro-thiazolo-[5,4-c]pyridin-2-yl)acrylamide] showed an IC50 greater than 1000 nM.
As to `Cc1cnc(-c2cc(N3CCc4nc(NS(C)(=O)=O)sc4C3)ncc2Cl)c(C)c1` [Compound A-45, N-(5-(5′-chloro-3,5-dimethyl-2,4′-bipyridin-2′-yl)-4,5,6,7-tetrahydro-thiazolo-[5,4-c]pyridin-2-yl)methane-sulfon-amide], the concentration for half-maximal inhibition (IC50) is greater than 1000 nM.
`Cc1cnc(-c2cc(N3CCc4nc(OC5CCC5)sc4C3)ncc2Cl)c(C)c1` [Compound A-47, 5-(5′-chloro-3,5-dimethyl-2,4′-bipyridin-2′-yl)-2-cyclobutoxy-4,5,6,7-tetrahydro-thiazolo-[5,4-c]pyridine] registered an IC50 of 88.3 nM.
As for `Cc1cnc(-c2cc(N3CCc4nc(Nc5ccccc5)sc4C3)ncc2Cl)c(C)c1` [Compound A-48, 5-(5′-chloro-3,5-dimethyl-2,4′-bipyridin-2′-yl)-N-phenyl-4,5,6,7-tetrahydro-thiazolo-[5,4-c]pyridin-2-amine], the IC50 was 330 nM.
The value for `CNc1ncc2c(n1)CCN(c1cc(-c3ncc(C)cc3C)c(Cl)cn1)C2` [Compound A-50, 6-(5′-chloro-3,5-dimethyl-2,4′-bipyridin-2′-yl)-N-methyl-5,6,7,8-tetrahydro-pyrido-[4,3-d]pyrimidin-2-amine] was 232 nM.
For `CCNc1ncc2c(n1)CCN(c1cc(-c3ncc(C)cc3C)c(Cl)cn1)C2` [Compound A-51, 6-(5′-chloro-3,5-dimethyl-2,4′-bipyridin-2′-yl)-N-ethyl-5,6,7,8-tetrahydro-pyrido-[4,3-d]pyrimidin-2-amine], the IC50 turned out to be 16.8 nM. Against the preceding compound, the IC50 is about 14-fold lower.
The compound `Cc1cnc(-c2cc(N3CCc4nc(NC5CC5)ncc4C3)ncc2Cl)c(C)c1` [Compound A-52, 6-(5′-chloro-3,5-dimethyl-2,4′-bipyridin-2′-yl)-N-cyclopropyl-5,6,7,8-tetrahydropyrido[4,3-d]pyrimidin-2-amine] displayed an IC50 of 5.4 nM.
Regarding `Cc1cnc(-c2cc(N3CCc4nc(N5CCCC5)ncc4C3)ncc2Cl)c(C)c1` [Compound A-53, 6-(5′-chloro-3,5-dimethyl-2,4′-bipyridin-2′-yl)-2-(pyrrolidin-1-yl)-5,6,7,8-tetrahydro-pyrido-[4,3-d]pyrimidine], the IC50 was 24.9 nM.
In turn, `Cc1cnc(-c2cc(N3CCc4nc(N(C)CCO)ncc4C3)ncc2Cl)c(C)c1` [Compound A-54, 2-((6-(5′-chloro-3,5-dimethyl-2,4′-bipyridin-2′-yl)-5,6,7,8-tetrahydro-pyrido-[4,3-d]pyrimidin-2-yl)(methyl)-amino)ethanol] gave a half-maximal inhibitory concentration (IC50) of 22.9 nM.
Compound `Cc1cnc(-c2cc(N3CCc4nc(N5CCC(O)CC5)ncc4C3)ncc2Cl)c(C)c1` [Compound A-55, 1-(6-(5′-chloro-3,5-dimethyl-2,4′-bipyridin-2′-yl)-5,6,7,8-tetrahydro-pyrido-[4,3-d]pyrimidin-2-yl)piperidin-4-ol] displayed an IC50 of 5.1 nM. This IC50 is about 4.5-fold lower than that of the compound before.
In the case of `Cc1cnc(-c2cc(N3CCc4nc(N5CCOCC5)ncc4C3)ncc2Cl)c(C)c1` [Compound A-56, 4-(6-(5′-chloro-3,5-dimethyl-2,4′-bipyridin-2′-yl)-5,6,7,8-tetrahydro-pyrido-[4,3-d]pyrimidin-2-yl)morpholine], the IC50 worked out at 48.7 nM. Compared with the last compound, the IC50 is about 9.5-fold higher.
The compound `Cc1cnc(-c2cc(N3CCc4nc(N5CC(C)NC(C)C5)ncc4C3)ncc2Cl)c(C)c1` (centres unmarked) [Compound A-57, 6-(5′-chloro-3,5-dimethyl-2,4′-bipyridin-2′-yl)-2-(3,5-dimethyl-piperazin-1-yl)-5,6,7,8-tetrahydro-pyrido-[4,3-d]pyrimidine] had an IC50 of 11.1 nM.
`Cc1cnc(-c2cc(N3CCc4nc(N(C)S(C)(=O)=O)ncc4C3)ncc2Cl)c(C)c1` [Compound A-58, N-(6-(5′-chloro-3,5-dimethyl-2,4′-bipyridin-2′-yl)-5,6,7,8-tetrahydro-pyrido-[4,3-d]pyrim-idin-2-yl)-N-methylmethane-sulfonamide] came in with an IC50 of 59.8 nM. Compared with the last compound, the IC50 is about 5.4-fold higher.
Take `Cc1cnc(-c2cc(N3CCc4nc(-n5cccn5)ncc4C3)ncc2Cl)c(C)c1` [Compound A-59, 6-(5′-chloro-3,5-dimethyl-2,4′-bipyridin-2′-yl)-2-(1H-pyrazol-1-yl)-5,6,7,8-tetrahydro-pyrido-[4,3-d]pyrim-idine]: the IC50 is 48.8 nM.
Consider `Cc1cnc(-c2cc(N3CCc4nc(NC(C)C)ncc4C3)ncc2Cl)c(C)c1` [Compound A-60, 6-(5′-chloro-3,5-dimethyl-2,4′-bipyridin-2′-yl)-N-isopropyl-5,6,7,8-tetrahydro-pyrido-[4,3-d]pyrimidin-2-amine], for which the IC50 is 18 nM. This IC50 lies about 2.7-fold lower than the previous one.
`Cc1cnc(-c2cc(N3CCc4nc(NC(C)(C)C)ncc4C3)ncc2Cl)c(C)c1` [Compound A-61, N-tert-butyl-6-(5′-chloro-3,5-dimethyl-2,4′-bipyridin-2′-yl)-5,6,7,8-tetrahydro-pyrido-[4,3-d]pyrimidin-2-amine] gave an IC50 of 14.1 nM.
The compound `Cc1cnc(-c2cc(N3CCc4nc(Nc5ccccc5)ncc4C3)ncc2Cl)c(C)c1` [Compound A-62, 6-(5′-chloro-3,5-dimethyl-2,4′-bipyridin-2′-yl)-N-phenyl-5,6,7,8-tetrahydro-pyrido-[4,3-d]pyrimidin-2-amine] came in with an IC50 of 51.1 nM.
Compound `CSc1ncc2c(n1)CCN(c1cc(-c3ncc(C)cc3C)c(Cl)cn1)C2` [Compound A-63, 6-(5′-chloro-3,5-dimethyl-2,4′-bipyridin-2′-yl)-2-(methylthio)-5,6,7,8-tetrahydro-pyrido-[4,3-d]pyrimidine] gave an IC50 of 87.6 nM.
`Cc1cnc(-c2cc(N3CCc4nc(S(C)(=O)=O)ncc4C3)ncc2Cl)c(C)c1` [Compound A-64, 6-(5′-chloro-3,5-dimethyl-2,4′-bipyridin-2′-yl)-2-(methyl-sulfonyl)-5,6,7,8-tetrahydro-pyrido-[4,3-d]pyrim-idine] yielded an IC50 of 500 nM.
